Source: patent publication US20220395458A1, “PREVENTION OF VISIBLE PARTICLE FORMATION IN AQUEOUS PROTEIN SOLUTIONS” (Hoffmann-La Roche Inc., priority 2019, published 2022)

Experiments:
[1] = Particle identification by FTIR; type: physicochemical; settings: particle identification d1
Protocol: Particles >20 μm were further identified by Fourier transformed infrared spectroscopy (FTTIR) using a Nicolet™ iNTM10 Infrared Microscope (Thermo Fisher Scientific) by comparison to reference spectra. Samples were filtrated under laminar air flow through gold-coated polycarbonate filters (pore size 0.8 μm, diameter 13 mm, Sterlitech). Filter conditioning included few droplets of ethanol followed by 1 mL of particle-free water. After filtration of the samples, ˜1 mL of cooled particle-free water was used as a final washing step before analysis.
(§1) pH of all solutions was verified. Samples were visually inspected immediately after spiking and regularly for up to 7 days. Further characterization by HIAC, turbidity, FTIR, and SEM-EDX was performed on day 1 only. All samples were analyzed when equilibrated to room temperature (4 h).
Glass leachables were generated from different types of glass vials, e.g. Exp33 and Exp51 vials, with different matrix solutions including WFI, a glycine solution adjusted to pH 6, and a placebo solution representative for a mAb formulation. Defined amounts of myristic and lauric acid below their solubility limit were added to the solutions/mixtures of glass leachables and analyzed. Visible particles in Seidenader are summarized in Table 3 and were detected for all samples in contrast to various controls. Particle formation was dependent on the glass leachable solution and dependent on incubation time. […] An example for the dependency of particle formation on incubation time is provided in Table 3 for myristic acid in glass leachable solution from Exp51 vials/glycine solution. The example highlights the kinetics of particle formation with no particles directly after spiking and more than 10 particles at incubation day 5 and 7. For selected samples, particles were further characterized and identified by FTIR confirming the presence of free fatty acids. FFA were not confirmed by FTIR for glass leachable solutions generated with WFI, which is linked to the time point of FTIR analysis at d1 and the late onset of particle formation for these samples. Placebo samples were not analyzed further by FTIR as the positive control was found negative attributed to the presence of additional 0.02% PS20, potentially solubilizing the FFA seeds. Characterization of the particles by SEM-EDX confirmed the presence of glass leachables, like Aluminium or silicon on the surface of the FFA particles. […] The spiking study highlights that mixtures of ‘real’ glass leachables lead to precipitation of FFA and particle formation in the visible range dependent on mixture and amount of glass leachables as well as dependent on incubation time, […]

[2] = Visible particles by Seidenader after spiking FFA to inorganic salt solutions; type: physicochemical; settings: for Visible particles in Seidenader: dependent on salt concentration over time, much lesser extent than CaCl2 and NaAlO2; for Visible particles Seidenader d0 / Visible particles Seidenader d1 / Visible particles Seidenader d2 / Visible particles Seidenader d7: FFA below solubility limit; for Visible particles Seidenader d0: d0 directly after spiking
Protocol: Del.) at 100 rpm at 25° C., for 1 hour. […] FFA concentrations were verified for selected by LC-MS samples acc. Honemann et al.^7
[…] NaCl, NaAlO2. NaBO2. B2O3, and CaCl2 (Sigma-Aldrich/Merck. Darmstadt. Del.) were selected as their dissolution products (ions) represent typical glass leachables from Type I borosilicate glass. The pH of the NaAlO2 and NaBO2 stock solutions was adjusted to pH 6 using HCl and subsequently filtered using 0.22 μm PVDF Sterivex filters (Merck Millipore. Darmstadt. Del.) and true elemental concentrations were determined by inductively-coupled plasma mass spectrometry (ICP-MS). […] Spiking experiments with FFA were performed in duplicates.
Samples were analyzed by visual inspection on a Seidenader V 90-T instrument (Seidenader Maschinenbau GmbH. Markt Schwaben. Del.) as previously described by Ditter et al.^9 and using a black/white panel according Ph. Eur. 2.9.20.^10 and classified as Many particles (>7). Few particles (4-7), or Practically free of particles (0-4) in E/P box, and Many particles (>10). Few particles (6-10). Essentially free of particles (1-5), or Free of particles (0) by Seidenader.
as §1
Different inorganic salt solutions, i.e. CaCl2. NaAlO2. NaBO2. B2O3, and NaCl, were prepared simulating artificial glass leachables. Myristic and lauric acid, as main degradation product from hydrolytic PS20 degradation, were added at concentrations below their solubility limit and samples were analyzed for visible particles. SVP, and turbidity. Samples were compared against relevant controls and the pH verified at pH 6.

[3] = CaCl2 250 μg/mL (Ca2+ 90 μg/mL)
[4] = CaCl2 500 μg/mL (Ca2+ 180 μg/mL)
[5] = CaCl2 1000 μg/mL (Ca2+ 360 μg/mL)
[6] = NaAlO2 nominal 250 μg/mL (0.012 μg/mL ion)
[7] = NaAlO2 nominal 500 μg/mL (0.024 μg/mL ion)
[8] = NaAlO2 nominal 1000 μg/mL (0.048 μg/mL ion)

CCCCCCCCCCCCCC(=O)O [Myristic acid, myristic acid]
FTIR ([1]; Exp33 vials, 3xTS Glycine pH 6): FFA
FTIR ([1]; Exp51 vials, 3xTS Glycine pH 6): FFA
Visible particles in Seidenader ([2]; B2O3 solution): visible particles were obtained
Visible particles Seidenader d0 [2, 3]: xxx (Many particles (>10, xxx))
Visible particles Seidenader d1 [2, 3]: xxx (Many particles (>10, xxx))
Visible particles Seidenader d2 [2, 3]: xxx (Many particles (>10, xxx))
Visible particles Seidenader d7 [2, 3]: xxx (Many particles (>10, xxx))
Visible particles Seidenader d0 [2, 4]: xxx (Many particles (>10, xxx))
Visible particles Seidenader d1 [2, 4]: xxx (Many particles (>10, xxx))
Visible particles Seidenader d2 [2, 4]: xxx (Many particles (>10, xxx))
Visible particles Seidenader d7 [2, 4]: xxx (Many particles (>10, xxx))
Visible particles Seidenader d0 [2, 5]: xxx (Many particles (>10, xxx))
Visible particles Seidenader d1 [2, 5]: xxx (Many particles (>10, xxx))
Visible particles Seidenader d2 [2, 5]: xxx (Many particles (>10, xxx))
Visible particles Seidenader d7 [2, 5]: xxx (Many particles (>10, xxx))
Visible particles Seidenader d1 [2, 6]: x (Essentially free of particles (1-5, x))
Visible particles Seidenader d2 [2, 6]: x (Essentially free of particles (1-5, x))
Visible particles Seidenader d7 [2, 6]: xxx (Many particles (>10, xxx))
Visible particles Seidenader d2 [2, 7]: x (Essentially free of particles (1-5, x))
Visible particles Seidenader d7 [2, 7]: xxx (Many particles (>10, xxx))
Visible particles Seidenader d0 [2, 8]: x (Essentially free of particles (1-5, x))
Visible particles Seidenader d7 [2, 8]: xxx (Many particles (>10, xxx))
Visible particles in Seidenader ([2]; NaBO2 solution): visible particles were obtained

CCCCCCCCCCCC(=O)O [Lauric acid, lauric acid]
FTIR ([1]; Exp33 vials, 3xTS WFI): FFA
FTIR ([1]; Exp51 vials, 3xTS Glycine pH 6): FFA
Visible particles in Seidenader ([2]; B2O3 solution): visible particles were obtained
Visible particles Seidenader d0 [2, 3]: / (Free of particles (0, /) by Seidenader)
Visible particles Seidenader d2 [2, 3]: xxx (Many particles (>10, xxx))
Visible particles Seidenader d7 [2, 3]: xxx (Many particles (>10, xxx))
Visible particles Seidenader d0 [2, 4]: / (Free of particles (0, /) by Seidenader)
Visible particles Seidenader d2 [2, 4]: xxx (Many particles (>10, xxx))
Visible particles Seidenader d7 [2, 4]: xxx (Many particles (>10, xxx))
Visible particles Seidenader d2 [2, 5]: xxx (Many particles (>10, xxx))
Visible particles Seidenader d0 [2, 6]: / (Free of particles (0, /) by Seidenader)
Visible particles Seidenader d1 [2, 6]: x (Essentially free of particles (1-5, x))
Visible particles Seidenader d2 [2, 6]: x (Essentially free of particles (1-5, x))
Visible particles Seidenader d0 [2, 7]: x (Essentially free of particles (1-5, x))
Visible particles Seidenader d1 [2, 7]: x (Essentially free of particles (1-5, x))
Visible particles Seidenader d1 [2, 8]: x (Essentially free of particles (1-5, x))
Visible particles Seidenader d7 [2, 8]: xxx (Many particles (>10, xxx))
Visible particles in Seidenader ([2]; NaBO2 solution): visible particles were obtained
